ChEMBL document CHEMBL4152188, “Design, synthesis and biological evaluation of C(4) substituted monobactams as antibacterial agents against multidrug-resistant Gram-negative bacteria” (Eur J Med Chem, 2018)
≈ marks a conversion by molar mass, not a printed value.

Columns and labels:
Assay type in all cases: functional
[1] = test system: Escherichia coli; assay: Antibacterial activity against extended-spectrum beta-lactamase producing Escherichia coli isolate 209285 after 18 hrs by CLSI broth microdilution method; conditions: isolate 209285, 18 h
[2] = test system: Pseudomonas aeruginosa; assay: Antibacterial activity against IMP-4 producing Pseudomonas aeruginosa isolate 209471 after 18 hrs by CLSI broth microdilution method; conditions: isolate 209471, 18 h
[3] = test system: Escherichia coli; assay: Antibacterial activity against extended-spectrum beta-lactamase producing Escherichia coli isolate 212648 after 18 hrs by CLSI broth microdilution method; conditions: isolate 212648, 18 h
[4] = test system: Pseudomonas aeruginosa; assay: Antibacterial activity against IMP-4 producing Pseudomonas aeruginosa isolate 208247 after 18 hrs by CLSI broth microdilution method; conditions: isolate 208247, 18 h
[5] = test system: Klebsiella pneumoniae; assay: Antibacterial activity against KPC-2 producing Klebsiella pneumoniae isolate 212232 after 18 hrs by CLSI broth microdilution method; conditions: isolate 212232, 18 h
[6] = test system: Escherichia coli; assay: Antibacterial activity against extended-spectrum beta-lactamase producing Escherichia coli isolate 106342 after 18 hrs by CLSI broth microdilution method; conditions: isolate 106342, 18 h
[7] = test system: Klebsiella pneumoniae; assay: Antibacterial activity against KPC-2 producing Klebsiella pneumoniae isolate 212229 after 18 hrs by CLSI broth microdilution method; conditions: isolate 212229, 18 h
[8] = test system: Escherichia coli; assay: Antibacterial activity against extended-spectrum beta-lactamase producing Escherichia coli isolate 208687 after 18 hrs by CLSI broth microdilution method; conditions: isolate 208687, 18 h
[9] = test system: Escherichia coli; assay: Antibacterial activity against Escherichia coli isolate 210737 after 18 hrs by CLSI broth microdilution method; conditions: isolate 210737, 18 h

For `C[C@@H](O)[C@H]1C(=O)N2C(C(=O)O)=C(S[C@@H]3CN[C@H](C(=O)N(C)C)C3)[C@H](C)[C@H]12` [MEROPENEM], the MIC [1] was 1 µg/mL (≈ 2.61 µM), the MIC [2] was 32 µg/mL (≈ 83.4 µM) and the MIC [3] was 8 µg/mL (≈ 20.9 µM). It also gave an MIC [4] of 32 µg/mL (≈ 83.4 µM), an MIC [5] of over 64 µg/mL and an MIC [6] of 8 µg/mL (≈ 20.9 µM). The MIC [7] was over 64 µg/mL, the MIC [8] was 0.125 µg/mL (≈ 0.326 µM) and the MIC [9] was 0.125 µg/mL (≈ 0.326 µM).
